Structures are written as SMILES. Where a SMILES comes first, the peptide text is derived from it.

The test system of assay [1] is photoreceptors of rd10/Serpinf1-/- mice. Nature of the assay: PSVue-550 fluorescence fundoscopy of photoreceptor cell death (PS externalization). Format: in vivo, mouse. The conditions noted are these: daily eye drops 5 µl of 1 mg/ml from P15, PSVue-550 fundoscopy P21. An excerpt: Fluorescence fundoscopy with a cell death probe was chosen as a simple method for monitoring photoreceptor cell death in alive animals. A fluorescent probe, bis (zinc^2+-dipicolylamine)-550, (PSVue®-550) (Molecular Targeting Technologies Inc, cat. P-1005) was reconstituted in Hanks’ Balanced Salt Solution (HBSS, Quality Biological, cat. 114-062-101) according to the manufacturer’s instructions[28],[36]. This probe is suitable for in vivo use to specifically and transiently label dying photoreceptors, such as in living rats with retinal degeneration the Royal College of Surgeons rat model, in a non-invasive and non-toxic method without the need of intraocular injection. Briefly, a stock of 1 mM solution of PSVue®-550 was stored in the dark at 4 °C and used within 14 days directly as eye drop. After 3-4 h of light onset each mouse received eye drops of 5–10 μl of 1 mM PSVue®-550 in the left eye and HBSS in the right eye as control. The eye drop volume was chosen such that the eye cavity was filled without spillage outside the eye, and it was modified depending on eye size. […] To obtain in vivo retinal images of fundi, at 24 h after the probe was administered, the mice were anesthetized, and pupils were dilated with 1% tropicamide for 5 min and kept hydrated with GenTeal. Fluorescence was imaged using a retinal imaging microscope (Micron III, Phoenix Research Labs) using an FF02- 475/50 nm excitation filter (Semrock, Inc.). We observed some variability in optic nerve (ON) fluorescence that could not be readily explained, so the optic nerve was excluded from analyses in all samples.
To determine the natural history of photoreceptor death of rd10 and rd10/Serpinf1^-/- mice, we assessed photoreceptor cell death in live mice using the fluorescent probe termed PSVue® 550 to monitor PS externalization by fluorescence fundoscopy (Supplementary Fig. 2). Given the reports about the retinas of rd10 mice starting to show histological changes at P16, and with a peak in the number of TUNEL+ nuclei in the ONL at P17-18[13], we monitored PS externalization in photoreceptors of these mice undergoing degeneration before death onset. Eye drops of 1 mM PSVue® 550 solution in HBSS were administered to left eyes and HBSS (vehicle) to their contralateral right eyes of each mouse at ages P16, P20, P22 or P24. PS externalization was determined by fluorescence fundoscopy 24 h post-administration. PSVue labeling of phosphatidylserine (PS) externalization associated with photoreceptor cell death in the rd10 retina (Supplementary Figs. 2, 3).
Fig. 2 Effect of PEDF peptide eye drops on protection against photoreceptor cell death in rd10 and rd10/Serpinf1^-/- mice. a Illustration of the experimental timeline of peptide application. Eye drops containing 5 µl of 17-mer, H105A, or R99A peptides in HBSS were administered daily to eyes of rd10 and rd10/Serpinf1^-/- mice from P15 to P20. Vehicle (HBSS) was applied in contralateral eyes. At P20, PSVue® was applied via eye drops, and fluorescence fundoscopy was conducted at P21 to assess photoreceptor cell death. RE and LE refer to the right and left eyes, respectively. b Fluorescence fundoscopy micrographs. Representative fluorescence fundoscopy images of retinas from mice treated as in Panel a with eyedrops of 1 mg/ml of each peptide. Quantification of fluorescence intensity was performed using ImageJ, with average intensity values corrected for background fluorescence from eyes that had not received PSVue or peptides. Each line represents data from one animal comparing treated and contralateral eyes, with five eyes (n = 5) per condition. Statistical significance was determined by paired t-test (****p ≤ 0.0001, and ns > 0.05). Scale bar = 0.5 mm. c Dose response of peptide eye drops. Representative fluorescence fundoscopy micrographs showing retinas treated with varying concentrations of 17-mer and H105A peptides (0.0 mg/ml to 1.0 mg/ml) in rd10 and rd10/Serpinf1^-/- mice. […]

The subject of assay [2] is photoreceptors of rd10 mice. Nature of the assay: ONL thickness (histology, spider plot), rd10 mice. Type of assay: in vivo, mouse. The conditions noted are these: for OS length and ONL thickness vs vehicle-treated or untreated eyes: daily eye drops, P21. As to the method: Both eyes were oriented before enucleation to allow sectioning along the dorsal/ventral axis. Enucleated eyes from rd10 and rd10/Serpinf1^-/- mice were incised in the cornea and fixed in 2.5% glutaraldehyde for 20 min and then in 10% neutral buffered formalin at 4 °C for at least 48 h, followed by paraffin embedding, sectioning, and staining with either H&E or immunofluorescence procedures. Slides containing retinal sections were deparaffinized by immersing the slides in various subsequent ethanol dilutions(100%, 95%,70% and 50%), then rinsed with phosphate-buffered saline, pH 7.4 (PBS, Quality Biological, 119-069-101), followed by incubation in blocking buffer containing 0.5% normal donkey serum (Abcam, ab7475), 0.5% bovine serum albumin (BSA, GoldBio, A-420-100), 0.1% Triton X-100 (Sigma, T8787-100) in PBS pH 7.4 for 2 h at room temperature. For fluorescence microscopy, antibodies, and 0.1 µg/ml DAPI were used to immunostain and counterstain the nuclei, respectively. Antibodies used in the study are listed in Supplementary Table 3. Images were acquired using a ZEIS 700 confocal microscope. Fluorescence intensity was quantified using ImageJ, and a rectangle was selected around regions of interest (ROIs), channels were split for multiple antibodies, threshold was adjusted, noise was de-speckled, and fluorescence intensity was measured.
To generate spider plots, the ONL thickness was measured from images passing through the optic nerve (ON) acquired with light microscopy of the retina sections stained with H&E or images of retina sections stained with DAPI with a dorsal-ventral orientation. The ONL thickness in the entire retina sections was measured at 5 different positions from both sides of the ON using ImageJ[28]. Alternatively, for DAPI stained images, a customed macro implemented in ImageJ was used to select only the ONL.
Fig. 4 Effect of eyedrops of 17-mer and H105A peptides on photoreceptor morphology of rd10 and rd10/Serpinf1^-/- mice. a Illustration of the experimental timeline of peptide application. RE and LE refer to the right and left eyes, respectively. Histological Evaluation. Representative microphotographs of retina sections from rd10 (b) and rd10/Serpinf1^-/- (c) mice treated with 17-mer, H105A, or R99A peptides at 1 mg/ml, or with vehicle (HBSS), compared to wild type C57BL/6 J mice. Sections were stained with hematoxylin and eosin. Spider Plot illustrate the thickness of the outer nuclear layer (ONL) in rd10 (d) and rd10/Serpinf1^-/- (e) mice. Five retinas (n = 5) per group were analyzed and each data point represents the average ± SD per location relative to the optic nerve (ON), analyzed using One-way ANOVA with Šídák’s multiple comparisons test. […]

In assay [3] the test system is photoreceptors of rd10/Serpinf1-/- mice. Briefly: ONL thickness (histology, spider plot), rd10/Serpinf1-/- mice. The settings on record: daily eye drops, P21. Format: in vivo, mouse. Here is the method:
Both eyes were oriented before enucleation to allow sectioning along the dorsal/ventral axis. Enucleated eyes from rd10 and rd10/Serpinf1^-/- mice were incised in the cornea and fixed in 2.5% glutaraldehyde for 20 min and then in 10% neutral buffered formalin at 4 °C for at least 48 h, followed by paraffin embedding, sectioning, and staining with either H&E or immunofluorescence procedures. […] For fluorescence microscopy, antibodies, and 0.1 µg/ml DAPI were used to immunostain and counterstain the nuclei, respectively. […] Fluorescence intensity was quantified using ImageJ, and a rectangle was selected around regions of interest (ROIs), channels were split for multiple antibodies, threshold was adjusted, noise was de-speckled, and fluorescence intensity was measured.
To generate spider plots, the ONL thickness was measured from images passing through the optic nerve (ON) acquired with light microscopy of the retina sections stained with H&E or images of retina sections stained with DAPI with a dorsal-ventral orientation. The ONL thickness in the entire retina sections was measured at 5 different positions from both sides of the ON using ImageJ[28]. […]

The next assay relates to PEDF-R. The settings on record: cited from earlier work.

Regarding `CC[C@H](C)[C@H](NC(=O)[C@H](CC(C)C)NC(=O)[C@H](CC(=O)O)NC(=O)[C@H](Cc1ccc(O)cc1)NC(=O)[C@H](Cc1ccc(O)cc1)NC(=O)[C@H](CC(C)C)NC(=O)[C@H](C)NC(=O)[C@H](CCCNC(=N)N)NC(=O)[C@H](Cc1c[nH]cn1)NC(=O)[C@@H](NC(=O)[C@@H](NC(=O)[C@H](CO)NC(=O)[C@H](CCC(=O)O)NC(=O)[C@@H](NC(=O)[C@H](C)NC(=O)[C@@H](N)CCC(N)=O)[C@@H](C)O)[C@@H](C)CC)[C@@H](C)CC)C(=O)N[C@@H](CO)C(=O)O` [R99A] (H-QATESIIHRALYYDLIS-OH), the “PS externalization / photoreceptor cell death vs vehicle” value in assay [1] is given as “no major efficacy”. In addition, the “OS length and ONL thickness vs vehicle-treated or untreated eyes” value in assay [2] and in assay [3] was “no effect” each time. Also, the “affinity for PEDF-R” value in the assay on PEDF-R was “lacks PEDF-R affinity”.

Consider `CC[C@H](C)[C@H](NC(=O)[C@H](CC(C)C)NC(=O)[C@H](CC(=O)O)NC(=O)[C@H](Cc1ccc(O)cc1)NC(=O)[C@H](Cc1ccc(O)cc1)NC(=O)[C@H](CC(C)C)NC(=O)[C@H](C)NC(=O)[C@H](CCCNC(=N)N)NC(=O)[C@H](C)NC(=O)[C@@H](NC(=O)[C@@H](NC(=O)[C@H](CO)NC(=O)[C@H](CCC(=O)O)NC(=O)[C@@H](NC(=O)[C@H](CCCNC(=N)N)NC(=O)[C@@H](N)CCC(N)=O)[C@@H](C)O)[C@@H](C)CC)[C@@H](C)CC)C(=O)N[C@@H](CO)C(=O)O` [H105A] (H-QRTESIIARALYYDLIS-OH), for which the “PS externalization / photoreceptor cell death vs vehicle” value in assay [1] was “diminished fundi fluorescence”. The “ONL thickness” value in assay [2] (daily eye drops 5 µl of 1 mg/ml P15-P24, assessed P25) is “a rescue in the ONL thickness”; in assay [2] (eye drops every other day P15-P23, assessed P25), “a rescue in the ONL thickness”. Further, the “OS length and ONL thickness vs vehicle-treated or untreated eyes” value in assay [2] was “longer OS and thicker outer nuclear layer”; in assay [3], “longer OS and thicker outer nuclear layer”. The “affinity for PEDF-R” value with PEDF-R is “have affinity for PEDF-R”.

The values are drawn from article PMC11928584, “H105A peptide eye drops promote photoreceptor survival in murine and human models of retinal degeneration” (Communications Medicine, 2025).
